The text below walks through data of patent US11267824B2, “Inhibitors of indoleamine 2,3-dioxygenase and/or tryptophan 2,3-dioxygenase” (IDORSIA PHARMACEUTICALS LTD, priority 2017, dated 2022).

The target in experiment [1] is Recombinant full-length human IDO1 (Homo sapiens (Human), UniProt P14902). The experiment is described as follows: IDO1 enzymatic assay (IDO inhibitory activity). In kind it is biochemical. The note with it: 2 nM enzyme, 5 μM L-tryptophan, pH6.5, 30 min pre-incubation, NFK quantified by LCMS; mean values if measured multiple times; read-out: hIDO activity (IC50 in nM). The essentials: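 N-His-tagged enzyme from E. coli at 2 nM in 37.5 mM phosphate pH6.5 with ascorbate, methylene blue, catalase; compounds 10 μM–0.5 nM, 0.6% DMSO, pre-incubated 30 min RT, then 5 μM L-tryptophan for 30 min RT. NFK quantified by LCMS against d5-tryptophan; IC50 from duplicate four-parameter fit, means where repeated.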
Chain of Recombinant full-length human IDO1 (P14902 whole entry): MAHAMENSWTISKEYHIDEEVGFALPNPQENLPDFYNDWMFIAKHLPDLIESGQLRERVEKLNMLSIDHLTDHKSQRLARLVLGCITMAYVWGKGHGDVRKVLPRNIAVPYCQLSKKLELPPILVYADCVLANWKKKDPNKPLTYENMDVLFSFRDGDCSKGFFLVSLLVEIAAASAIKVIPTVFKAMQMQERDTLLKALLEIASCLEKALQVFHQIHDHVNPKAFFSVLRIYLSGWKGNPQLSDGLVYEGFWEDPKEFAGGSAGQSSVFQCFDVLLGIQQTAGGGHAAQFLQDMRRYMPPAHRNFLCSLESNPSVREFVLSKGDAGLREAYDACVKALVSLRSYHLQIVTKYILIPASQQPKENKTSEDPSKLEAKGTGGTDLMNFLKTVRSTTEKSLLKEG

Experiment [2] has as its target Recombinant human TDO comprising amino acids 19-407 (Homo sapiens (Human), UniProt P48775). As to the kind of experiment: TDO2 enzymatic assay (TDO inhibitory activity). Format: biochemical. The note with it: 15 nM enzyme, 200 μM L-tryptophan, pH7, 30 min pre-incubation, NFK quantified by LCMS; mean values if measured multiple times; read-out: hTDO activity (IC50 in nM). The method, boiled down:
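His-tagged enzyme (15 nM, E. coli-expressed) in pH 7 phosphate buffer with ascorbate, catalase, BSA, Tween 20, 0.6% DMSO; 30 min RT pre-incubation with compound (10 μM–0.5 nM), then 200 μM L-tryptophan for 30 min RT. N′-formylkynurenine quantified by LCMS against deuterated tryptophan; IC50 by four-parameter fit, duplicates.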

Each structure is given as a SMILES string.

The term IC50 denotes the concentration that inhibits the measured activity by half.

Chain of Recombinant human TDO comprising amino acids 19-407 (P48775 19-406 limits assumed): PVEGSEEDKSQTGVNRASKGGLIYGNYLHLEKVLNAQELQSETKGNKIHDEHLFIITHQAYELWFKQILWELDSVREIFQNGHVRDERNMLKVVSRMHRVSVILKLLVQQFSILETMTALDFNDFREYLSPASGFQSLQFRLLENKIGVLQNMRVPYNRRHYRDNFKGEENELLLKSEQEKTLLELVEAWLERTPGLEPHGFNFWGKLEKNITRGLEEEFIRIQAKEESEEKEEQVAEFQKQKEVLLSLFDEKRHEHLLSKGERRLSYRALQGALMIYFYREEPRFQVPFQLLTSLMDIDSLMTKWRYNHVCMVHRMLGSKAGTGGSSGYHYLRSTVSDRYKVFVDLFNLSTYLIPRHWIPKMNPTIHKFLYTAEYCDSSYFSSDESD

As to `COC1CCCC(C(O)c2c(C3CC3)sc3cncn23)C1` (centres unmarked) [Example 79, (2-Cyclopropyl-imidazo[5,1-b]thiazol-3-yl)-(3-methoxy-cyclohexyl)-methanol], the IC50 in experiment [1] came to 109 nM; in experiment [2], 1850 nM.
`CCc1sc2cncn2c1C(O)CC1CCC(C)(C)CC1` (racemic) [Example 178, rac-2-(4,4-Dimethyl-cyclohexyl)-1-(2-ethyl-imidazo[5,1-b]thiazol-3-yl)-ethanol]: the IC50 in experiment [1] is 118 nM; in experiment [2] it was 1290 nM.
As for `OC(CC1CCC1)c1c(C2CC2)sc2cncn12` (racemic) [Example 40, rac-2-Cyclobutyl-1-(2-cyclopropyl-imidazo[5,1-b]thiazol-3-yl)-ethanol], the IC50 in experiment [1] amounted to 44.9 nM; in experiment [2] it was 697 nM.
For `CCCc1sc2cncn2c1C(O)C1CCCCC1` (racemic) [Example 130, rac-Cyclohexyl-(2-propyl-imidazo[5,1-b]thiazol-3-yl)-methanol], in that order: 49.5 nM and 153 nM.
For `OC1CCC(CC(O)c2c(C3CC3)sc3cncn23)CC1` (racemic) [Example 152, rac-4-[2-(2-Cyclopropyl-imidazo[5,1-b]thiazol-3-yl)-2-hydroxy-ethyl]-cyclohexanol], in that order: 18.4 nM and 1130 nM.
For `OC(CC1CCCCC1)c1c(C2CC(F)(F)C2)sc2cncn12` (racemic) [Example 155, rac-2-Cyclohexyl-1-[2-(3,3-difluoro-cyclobutyl)-imidazo[5,1-b]thiazol-3-yl]-ethanol], in that order: 485 nM and 1910 nM.
Take `OC(c1ccc(C(F)(F)F)cc1)c1c(C2CC2)sc2cncn12` (racemic) [Example 159, rac-(2-Cyclopropyl-imidazo[5,1-b]thiazol-3-yl)-(4-trifluoromethyl-phenyl)-methanol]: the IC50 in experiment [1] stood at 305 nM; in experiment [2] it was 2700 nM.
Regarding `C=Cc1sc2cncn2c1C(O)C1CCCCC1` (racemic) [Example 68, rac-Cyclohexyl-(2-vinyl-imidazo[5,1-b]thiazol-3-yl)-methanol], the concentration for half-maximal inhibition (IC50) in experiment [1] was determined as 14.4 nM; in experiment [2], 29.3 nM.
Regarding `OC(c1ccc(Cl)cc1)c1c(C2CC2)sc2cncn12` (racemic) [Example 146, rac-(4-Chloro-phenyl)-(2-cyclopropyl-imidazo[5,1-b]thiazol-3-yl)-methanol], the IC50 was 63.9 nM in experiment [1] and 1090 nM in experiment [2].
The like results for `Cc1sc2cncn2c1C(O)c1cccs1` (racemic) [Example 57, rac-(2-Methyl-imidazo[5,1-b]thiazol-3-yl)-thiophen-2-yl-methanol] were, in that order, 433 nM and 829 nM.
In the case of `Cc1sc2cncn2c1C(O)C1(C)CCCCC1` (racemic) [Example 174, rac-(1-Methyl-cyclohexyl)-(2-methyl-imidazo[5,1-b]thiazol-3-yl)-methanol], the half-maximal inhibitory concentration (IC50) in experiment [1] turned out to be 32.4 nM; in experiment [2], 37.9 nM.
For `CC(C)(C)C1CCC(CC(O)c2c(C3CC3)sc3cncn23)CC1` (racemic) [Example 74, rac-2-(4-tert-Butyl-cyclohexyl)-1-(2-cyclopropyl-imidazo[5,1-b]thiazol-3-yl)-ethanol], the half-maximal inhibitory concentration (IC50) was 950 nM in experiment [1] and 4330 nM in experiment [2].
For `OC(c1c(C2CC2)sc2cncn12)C12CC(c3ccccc3)(C1)C2` (racemic) [Example 191, rac-(2-Cycclopropyl-imidazo[5,1-b]thiazol-3-yl)-(3-phenyl-bicyclo[1.1.1]pent-1-yl)-methanol], in that order: 28.6 nM and 1270 nM.
With `CCc1sc2cncn2c1C(O)CC1CCCCC1` (racemic) [Example 100, rac-2-Cyclohexyl-1-(2-ethyl-imidazo[5,1-b]thiazol-3-yl)-ethanol], the concentration for half-maximal inhibition (IC50) in experiment [1] is 6.63 nM; in experiment [2], 299 nM.
The like results for `OC(c1ccccc1F)c1c(C2CC2)sc2cncn12` (racemic) [Example 163, rac-(2-Cyclopropyl-imidazo[5,1-b]thiazol-3-yl)-(2-fluoro-phenyl)-methanol] were, in that order, 56.7 nM and 1290 nM.
In the case of `OC(CC1CC2CCC1O2)c1c(C2CC2)sc2cncn12` (centres unmarked) [Example 41, 1-(2-Cyclopropyl-imidazo[5,1-b]thiazol-3-yl)-2-(7-oxa-bicyclo[2.2.1]hept-2-yl)-ethanol], the figures for the IC50 in experiment [1] and in experiment [2] were 93.4 nM and 2340 nM, respectively.
For `OC(c1c(-c2cccc(F)c2)sc2cncn12)C1CCCCC1` (racemic) [Example 181, rac-Cyclohexyl-[2-(3-fluoro-phenyl)-imidazo[5,1-b]thiazol-3-yl]-methanol], the values for the 50% inhibitory concentration (IC50) in experiment [1] and in experiment [2] were 965 nM and 885 nM, respectively.
Take `OC(c1ccc(F)cc1)c1c(C2CC2)sc2cncn12` (racemic) [Example 144, rac-(2-Cyclopropyl-imidazo[5,1-b]thiazol-3-yl)-(4-fluoro-phenyl)-methanol]: the IC50 in experiment [1] came out at 32.8 nM; in experiment [2] it was 475 nM.
For `OC(CC1CCCCC1c1ccccc1)c1c(C2CC2)sc2cncn12` (centres unmarked) [Example 75, 1-(2-Cyclopropyl-imidazo[5,1-b]thiazol-3-yl)-2-(2-phenyl-cyclohexyl)-ethanol], in that order: 1040 nM and 9460 nM.
The like results for `CC1(C)CCC(C(O)c2c(C(F)(F)F)sc3cncn23)CC1` (racemic) [Example 161, rac-(4,4-Dimethyl-cyclohexyl)-(2-trifluoromethyl-imidazo[5,1-b]thiazol-3-yl)-methanol] were, in that order, 58.3 nM and 2770 nM.
On to `OC(c1c(-c2ccccc2)sc2cncn12)C1CCCCC1` (racemic) [Example 92, rac-Cyclohexyl-(2-phenyl-imidazo[5,1-b]thiazol-3-yl)-methanol], for which the half-inhibitory concentration (IC50) in experiment [1] worked out at 382 nM; in experiment [2] it was 246 nM.
For `OC(c1c(C2CC2)sc2cncn12)C1CCCC1Cc1ccccc1` (centres unmarked) [Example 91, (2-Benzyl-cyclopentyl)-(2-cyclopropyl-imidazo[5,1-b]thiazol-3-yl)-methanol], in that order: 288 nM and 1640 nM.
Take `Cc1ccccc1CC(O)c1c(C2CC2)sc2cncn12` (racemic) [Example 61, rac-1-(2-Cyclopropyl-imidazo[5,1-b]thiazol-3-yl)-2-o-tolyl-ethanol]: the IC50 in experiment [1] was determined as 431 nM; in experiment [2], 578 nM.
`O[C@@H](CC1CCCCC1)c1c(C2CCCC2)sc2cncn12` [Example 10a, (S)-2-Cyclohexyl-1-(2-cyclopentylimidazo[5,1-b]thiazol-3-yl)ethan-1-ol]: the values for the IC50 in experiment [1] and in experiment [2] were 190 nM and 164 nM, respectively.
As to `OC(CC1CCC(C2CCC2)CC1)c1c(C2CC2)sc2cncn12` (racemic) [Example 87, rac-2-(4-Cyclobutyl-cyclohexyl)-1-(2-cyclopropyl-imidazo[5,1-b]thiazol-3-yl)-ethanol], the results for the concentration for half-maximal inhibition (IC50) in experiment [1] and in experiment [2] were 820 nM and 3100 nM, respectively.
For `OC(c1c(Cl)sc2cncn12)C1CCCCCC1` (racemic) [Example 17, rac-(2-Chloro-imidazo[5,1-b]thiazol-3-yl)-cycloheptyl-methanol], in that order: 170 nM and 301 nM.
The like results for `COc1ccc(C(O)c2c(C3CC3)sc3cncn23)cc1` (racemic) [Example 55, rac-(2-Cyclopropyl-imidazo[5,1-b]thiazol-3-yl)-(4-methoxy-phenyl)-methanol] were, in that order, 86.9 nM and 2270 nM.
On to `OC(c1c(C2CC2)sc2cncn12)C1CCCCCC1` (racemic) [Example 165, rac-Cycloheptyl-(2-cyclopropyl-imidazo[5,1-b]thiazol-3-yl)-methanol], for which the concentration for half-maximal inhibition (IC50) is 14.2 nM in experiment [1] and 382 nM in experiment [2].
The like results for `Cc1sc2cncn2c1C(O)[C@H]1C[C@@H]1c1ccccc1` (single isomer, unassigned) [Example 167, rac-(S*)-(2-Methyl-imidazo[5,1-b]thiazol-3-yl)-((1S*,2S*)-2-phenyl-cyclopropyl)-methanol] were, in that order, 338 nM and above 10200 nM.
With `OC(CC1CCCCC1)c1c(C(F)(F)F)sc2cncn12` (racemic) [Example 64, rac-2-Cyclohexyl-1-(2-trifluoromethyl-imidazo[5,1-b]thiazol-3-yl)-ethanol], the IC50 amounted to 69 nM in experiment [1] and 3180 nM in experiment [2].
Turning to `OC(c1cnn(C2CCCC2)c1)c1c(C2CC2)sc2cncn12` (racemic) [Example 189, rac-(1-Cyclopentyl-1H-pyrazol-4-yl)-(2-cyclopropyl-imidazo[5,1-b]thiazol-3-yl)-methanol], the values for the IC50 in experiment [1] and in experiment [2] were 112 nM and above 10200 nM, respectively.
On to `CCc1sc2cncn2c1C(O)C1(C)CCCCC1` (racemic) [Example 175, rac-(2-Ethyl-imidazo[5,1-b]thiazol-3-yl)-(1-methyl-cyclohexyl)-methanol], for which the figures for the IC50 in experiment [1] and in experiment [2] were 7.04 nM and 66.8 nM, respectively.
The like results for `Cc1sc2cncn2c1C(O)CC1CCCC1` (racemic) [Example 183, rac-2-Cyclopentyl-1-(2-methyl-imidazo[5,1-b]thiazol-3-yl)-ethanol] were, in that order, 190 nM and 573 nM.
As for `O[C@@H](CC1CCCC1)c1c(C2CC2)sc2cncn12` [Example 24a, (S)-2-Cyclopentyl-1-(2-cyclopropyl-imidazo[5,1-b]thiazol-3-yl)-ethanol], the results for the IC50 in experiment [1] and in experiment [2] were 20.5 nM and 356 nM, respectively.
